From US12391698B2, “Substituted piperidines and piperazines and methods for the treatment of CNS disorders” (SUVEN LIFE SCIENCES LIMITED, priority 2022, dated 2025)
Counter-ions that a name gives are not always drawn.

Assays:
Male Wistar rats [1] = experiment: Effect on sleep/wake profile (EEG/EMG telemetry); format: in vivo, rat; conditions: 10 mg/kg, p.o., dosed 15 min prior to lights-off
Excerpt: Male Wistar rats were anesthetized with isoflurane (Baxter India Private Limited: 4% in oxygen for induction; 2% for maintenance) and were fixed into the stereotaxic frame (Stoelting, Illinois, USA) to perform surgery. An incision was made to reveal bregma from which coordinates were taken. Telemetric transmitter (Model F40-EET; DSI, St. Paul, MN, USA) was implanted into intraperitoneal cavity of the rats and leads were tunneled subcutaneously to the skull. One pair of electrodes were implanted epidurally into the frontal cortex region using stainless steel screws (CMA Microdialysis, Stockholm, Sweden) at coordinates of AP +3.2 mm, ML ±3.0 mm (Paxinos and Watson 2004) for recording of EEG and electrodes were fixed to the skull with dental acrylic cement (Dentalon® plus). The second set of lead wires were implanted into the neck nuchal muscle to record electromyogram (EMG). After a surgical recovery of minimum 3 weeks, animals were acclimatized to the handling procedures and were given a mock dosing for 3 days before the first experimental day.
One hour prior to lights-off, transmitter was switched on using a magnet and animals were transferred on to the receiver along with the home cage. […]
The amount of time spent in wake was determined for every 30 min and comparison between treatments was done using Bonferroni's post test.

Male Swiss albino mice = experiment: Forced swim test; format: in vivo, mouse; conditions: 10 mg/kg, p.o., 30 min after treatment
Protocol: Male Swiss albino mice having weight range of 30-40 g were used. Mice were dosed with vehicle or test compound. Thirty min after treatment, animals were individually placed inside the plexiglass cylinder (40 cm height×17 cm width) for 6 min. The depth of water (24±1° C.) was maintained at 18 cm. The immobility of the mice during the last 4 min were recorded in the 6 min trial. Forced swim test assesses antidepressant like effects of test compounds.

Rats = experiment: Tardive dyskinesia test (vacuous chewing movements and tongue protrusions); format: in vivo, rat; conditions: 10 mg/kg, p.o. (5 mg twice a day) for 4 weeks
Protocol: Rats weighing 200-230 g were acclimatized to the plexiglass observation cages (30×20×30 cm) equipped with mirrors for 5 min. After acclimatization, basal vacuous chewing movements (VCMs) and tongue protrusions (TPs) of the rats were quantified manually for 5 min. Rats were randomized based on the basal readings. Rats received a single dose of sesame oil (vehicle treatment) or haloperidol decanoate (38 mg/kg, i.m. positive control). Example-2, 10 mg/kg, p.o. ([…]) was administered for 4 weeks. VCMs and TPs were scored on weekly basis for 4 weeks. Tardive dyskinesia is a side effect of antipsychotic medications.

Male Wistar rats [2] = experiment: MK-801-induced amnesia in novel object recognition task (NORT); format: in vivo, rat; conditions: 0.3 mg/kg, p.o., MK-801 0.03 mg/kg, i.p.
Protocol: Male Wistar rats of 230-280 g body weight were used. Rats were weighed and randomized according to their body weights. On day 1, animals were habituated to the arenas for 45 min. On day 2, 30 min before the trial-1 animals were administered with vehicle (WFI) or test compound and 20 min before the trial-1 the animals were administered with MK-801 0.03 mg/kg, i.p. Trial-1 is familiarization task in the arena with two similar kind of silver color flasks of same dimensions for a period of 3 min. After an inter trial interval of 90 min animals were subjected to recognition task in the arena with one silver and one violet bottle for a period of 3 min. Time spent by the rats with either familiar or novel objects was noted and analyzed. MK-801-induced amnesia in novel object recognition task models cognitive deficits associated with schizophrenia.

Compound: O=C1C[C@@H]2CCCN2C(=O)N1CCCCN1CCN(c2nsc3ccccc23)CC1 [Example 2, 2-[4-(4-Benzo[d]isothiazol-3-yl-piperazin-1-yl)-butyl]-tetrahydro-pyrrolo[1,2-c]pyrimidine-1,3-dione oxalate]
- change in percent time wake (Male Wistar rats [1]): no change
- Inference, mice forced swim test (Male Swiss albino mice): Active
- Inference, tardive dyskinesia like symptoms (VCMs and TPs) (Rats): Example-2 did not show tardive
- Inference, MK-801-induced amnesia in NORT (Male Wistar rats [2]): Active
